Like-named read-outs stand apart in the source and are kept apart here.
Key:
[1] = target: T1, PDGF-Ra (Homo sapiens, UniProt P16234); assay: Inhibitory activity against PDGF-Ra phosphorylation by PDGF-AA stimulation using G292; format: cell-based; details: for IC50: > means inhibition at indicated concentration not more than 50%, < and << not less than 50%, read-out: PDGF (E) IC50; for inhibition at 0.1 µM: G292, figure within parentheses in >100( ), at 100 nM, read-out: PDGF (E) inhibition (%) at 100 nM
T1 construct: host or cells: G-292 human osteosarcoma cells
Summary of the method: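 In G-292 osteosarcoma cells kept overnight in 0.1% FBS, compound exposure (1 hr, 37 °C) preceded PDGF-AA stimulation at 50 ng/ml for 5 min; receptor phosphotyrosine was then detected by PY-20 capture ELISA.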

[2] = target: T2, c-kit (Homo sapiens, UniProt P10721); assay: Inhibitory activity against c-kit autophosphorylation (MO7e cells, h-SCF); format: cell-based; details: for IC50: MO7e cells, read-out: c-kit IC50; for inhibition at 1 µM: Mo7e, at 1000 nM
T2 construct: MO7e (human megakaryocytic leukemia cell line) which had been arrested for 20 hr; endogenous in cells; host or cells: MO7e human megakaryocytic leukemia cell line
Summary of the method: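 First, human megakaryocytic leukemia MO7e cells arrested 20 hr receive compound for one hour. Second, SCF stimulation (50 ng/ml) runs 5 min, after which cells are solubilized. Third, tyrosine-phosphorylated c-kit in the lysate is quantified by sandwich ELISA with absorbance at 450 nm.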

[3] = figure within parentheses in −( ) or >1000( )

T2 sequence (P10721 26-976): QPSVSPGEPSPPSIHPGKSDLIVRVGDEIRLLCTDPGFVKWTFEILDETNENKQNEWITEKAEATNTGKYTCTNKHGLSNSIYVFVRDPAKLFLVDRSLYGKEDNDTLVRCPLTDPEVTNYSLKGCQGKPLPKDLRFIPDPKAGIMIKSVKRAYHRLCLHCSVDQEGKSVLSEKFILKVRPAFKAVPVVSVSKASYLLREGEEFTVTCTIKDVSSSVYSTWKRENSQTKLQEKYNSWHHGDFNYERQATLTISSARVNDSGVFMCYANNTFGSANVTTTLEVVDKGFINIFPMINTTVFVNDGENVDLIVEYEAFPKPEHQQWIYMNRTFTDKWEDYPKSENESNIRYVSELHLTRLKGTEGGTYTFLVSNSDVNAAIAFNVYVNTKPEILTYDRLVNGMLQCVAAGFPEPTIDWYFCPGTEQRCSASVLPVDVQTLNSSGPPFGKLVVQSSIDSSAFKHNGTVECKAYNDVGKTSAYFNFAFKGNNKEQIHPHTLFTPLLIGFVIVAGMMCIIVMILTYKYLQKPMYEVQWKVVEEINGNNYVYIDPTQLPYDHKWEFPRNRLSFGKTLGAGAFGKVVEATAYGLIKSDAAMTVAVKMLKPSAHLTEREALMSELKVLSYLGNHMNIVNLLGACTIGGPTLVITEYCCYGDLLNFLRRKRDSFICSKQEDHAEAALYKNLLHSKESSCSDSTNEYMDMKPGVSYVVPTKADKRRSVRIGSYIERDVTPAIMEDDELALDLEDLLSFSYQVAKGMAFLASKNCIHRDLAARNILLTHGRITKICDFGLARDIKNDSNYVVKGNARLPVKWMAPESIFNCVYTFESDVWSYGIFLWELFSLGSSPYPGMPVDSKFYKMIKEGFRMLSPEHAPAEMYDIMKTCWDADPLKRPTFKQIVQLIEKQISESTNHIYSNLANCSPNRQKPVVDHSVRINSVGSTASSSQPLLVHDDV
T1 sequence (P16234 24-1089): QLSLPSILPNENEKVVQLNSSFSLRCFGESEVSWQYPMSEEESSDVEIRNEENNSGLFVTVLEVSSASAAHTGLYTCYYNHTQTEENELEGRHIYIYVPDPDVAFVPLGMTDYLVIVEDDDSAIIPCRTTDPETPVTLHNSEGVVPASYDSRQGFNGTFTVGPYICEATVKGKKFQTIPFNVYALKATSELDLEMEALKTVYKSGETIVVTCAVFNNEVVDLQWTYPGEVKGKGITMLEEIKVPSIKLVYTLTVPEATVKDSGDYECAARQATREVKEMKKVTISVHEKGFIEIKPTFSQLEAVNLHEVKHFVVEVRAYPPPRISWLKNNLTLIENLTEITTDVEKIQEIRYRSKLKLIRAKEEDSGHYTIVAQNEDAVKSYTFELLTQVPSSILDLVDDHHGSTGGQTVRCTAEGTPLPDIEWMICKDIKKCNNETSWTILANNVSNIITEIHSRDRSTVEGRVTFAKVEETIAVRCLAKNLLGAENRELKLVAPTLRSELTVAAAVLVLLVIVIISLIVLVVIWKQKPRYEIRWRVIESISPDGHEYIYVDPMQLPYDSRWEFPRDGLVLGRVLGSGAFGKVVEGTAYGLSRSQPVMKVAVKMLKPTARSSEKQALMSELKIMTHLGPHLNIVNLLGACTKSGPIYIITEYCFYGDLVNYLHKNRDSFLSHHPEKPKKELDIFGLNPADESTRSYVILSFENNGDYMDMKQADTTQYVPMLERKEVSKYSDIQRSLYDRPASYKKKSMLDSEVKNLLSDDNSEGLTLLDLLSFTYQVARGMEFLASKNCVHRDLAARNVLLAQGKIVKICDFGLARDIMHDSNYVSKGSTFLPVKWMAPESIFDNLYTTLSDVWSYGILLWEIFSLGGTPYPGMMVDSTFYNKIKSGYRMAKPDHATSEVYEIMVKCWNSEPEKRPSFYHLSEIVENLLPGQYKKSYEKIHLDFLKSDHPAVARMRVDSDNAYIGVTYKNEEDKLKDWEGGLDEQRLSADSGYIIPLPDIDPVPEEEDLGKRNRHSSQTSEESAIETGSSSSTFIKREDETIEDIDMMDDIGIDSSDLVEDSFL

COc1cc2nccc(Oc3ccc(NC(=O)OC(C)c4cccc(N(C)C)c4)cc3)c2cc1OC (stereo not drawn) [Example 199, 1-[3-(Dimethylamino)phenyl]ethyl N-{4-[(6,7-dimethoxy-4-quinolyl)oxy]phenyl}carbamate]
IC50 ([1]; Pharmacological Test Example 1): 35 nM | IC50 ([2]; h-SCF 50 ng/ml): 807 nM

COc1cc2ncnc(Oc3ccc(NC(=S)NC(=O)C4CCCC4)cc3)c2cc1OC [Example 1183, N-Cyclopentylcarbonyl-N′-{4-[(6,7-dimethoxy-4-quinazolinyl)oxy]phenyl}thiourea]
IC50 [1]: < 10 nM | IC50 ([2]; h-SCF stimulation): 427 nM

CCN(CC)C(=O)NC(=S)Nc1ccc(Oc2ccnc3cc(OC)c(OC)cc23)cc1 [Example 1041, N-{4-[(6,7-Dimethoxy-4-quinolyl)oxy]phenyl}-{[(diethylamino)carbonyl]amino}methanethioamide]
IC50 [1]: 12 nM | IC50 ([2]; h-SCF stimulation): 98 nM

COc1cc(Oc2ncnc3cc(OC)c(OC)cc23)ccc1NC(=O)NCCCN1CCN(C)CC1 [Example 633, N-{4-[(6,7-Dimethoxy-4-quinazolinyl)oxy]-2-methoxyphenyl}-N′-[3-(4-methylpiperazino)-propyl]urea]
IC50 [1]: 58 nM | inhibition at 1 µM [2, 3]: 28%

COc1cc2nccc(Oc3ccc(NC(=O)Oc4ccccc4OC)c(C)c3C)c2cc1OC [Example 279, 2-Methoxyphenyl N-{4-[(6,7-dimethoxy-4-quinolyl)oxy]-2,3-dimethylphenyl}carbamate]
IC50 ([1]; Pharmacological Test Example 1): < 10 nM | IC50 ([2]; h-SCF 50 ng/ml): < 30 nM

COc1cc2nccc(Oc3ccc(NC(=O)OC(C)c4ccc(F)cc4)cc3)c2cc1OC (stereo not drawn) [Example 102, 1-(4-Fluorophenyl)ethyl N-{4-[(6,7-dimethoxy-4-quinolyl)oxy]phenyl}carbamate]
IC50 ([1]; Pharmacological Test Example 1): < 10 nM | IC50 ([2]; h-SCF 50 ng/ml): 217 nM

COc1cc(Oc2ncnc3cc(OC)c(OC)cc23)ccc1NC(=O)NCCN(C(C)C)C(C)C [Example 660, N-[2-(Diisopropylamino)ethyl]-N′-{4-[(6,7-dimethoxy-4-quinazolinyl)oxy]-2-methoxyphenyl}urea]
IC50 [1]: 25 nM | IC50 ([2]; 50 ng/ml h-SCF): 835 nM

COc1cc2nccc(Oc3ccc(NC(=O)N[C@H]4CCN(Cc5ccccc5)C4)cc3)c2cc1OC [Example 565, N-[(3S)-1-Benzyltetrahydro-1H-3-pyrrolyl]-N′-{4-[(6,7-dimethoxy-4-quinolyl)oxy]phenyl}urea]
IC50 [1]: 46 nM | IC50 ([2]; 50 ng/ml h-SCF): 170 nM

COc1cc2nccc(Oc3cc(C)c(NC(=O)OC(C)c4cccc(C(F)(F)F)c4)cc3C)c2cc1OC (stereo not drawn) [Example 89, 1-[3-(Trifluoromethyl)phenyl]ethyl N-{4-[(6,7-dimethoxy-4-quinolyl)oxy]-2,5-dimethylphenyl}carbamate]
IC50 ([1]; Pharmacological Test Example 1): 14 nM | inhibition at 1 µM ([2]; figure in parentheses in −( )): 35%

CCC(CC)OC(=O)Nc1ccc(Oc2ccnc3cc(OC)c(OC)cc23)cc1 [Example 358, 1-Ethylpropyl N-{4-[(6,7-dimethoxy-4-quinolyl)oxy]phenyl}carbamate]
IC50 ([1]; Pharmacological Test Example 1): < 10 nM | IC50 ([2]; h-SCF 50 ng/ml): 366 nM

COc1cc2nccc(Oc3ccc(NC(=O)OCC4CCCCC4)c(C)c3C)c2cc1OC [Example 285, Cyclohexylmethyl N-{4-[(6,7-dimethoxy-4-quinolyl)oxy]-2,3-dimethylphenyl}carbamate]
IC50 ([1]; Pharmacological Test Example 1): < 10 nM | IC50 ([2]; h-SCF 50 ng/ml): 85 nM

COc1cc2ncnc(Oc3ccc(NC(=O)OC4CCOCC4)cc3)c2cc1OC [Example 473, Tetrahydro-2H-4-pyranyl N-{4-[(6,7-dimethoxy-4-quinazolinyl)oxy]phenyl}carbamate]
IC50 [1]: > 100 nM | inhibition at 0.1 µM [1]: 30% | IC50 ([2]; 50 ng/ml h-SCF): 259 nM

COc1cc2nccc(Oc3ccc(NC(=O)OCc4ccc(C(F)(F)F)cc4)c(C)c3C)c2cc1OC [Example 22, 4-(Trifluoromethyl)benzyl N-{4-[(6,7-dimethoxy-4-quinolyl)oxy]-2,3-dimethylphenyl}carbamate]
IC50 ([1]; Pharmacological Test Example 1): < 10 nM | IC50 ([2]; h-SCF 50 ng/ml): 186 nM

COc1cc2ncnc(Oc3ccc(NC(=O)NC4CCN(Cc5ccccc5Cl)C4)c([N+](=O)[O-])c3)c2cc1OC (stereo not drawn) [Example 581, N-[1-(2-Chlorobenzyl)tetrahydro-1H-3-pyrrolyl]-N′-{4-[(6,7-dimethoxy-4-quinazolinyl)oxy]-2-nitrophenyl}urea]
IC50 [1]: 14 nM | IC50 ([2]; 50 ng/ml h-SCF): 180 nM

COc1cc2nccc(Oc3ccc(NC(=O)OCCCOc4ccccc4F)c(C)c3C)c2cc1OC [Example 143, 3-(2-Fluorophenoxy)propyl N-{4-[(6,7-dimethoxy-4-quinolyl)oxy]-2,3-dimethylphenyl}carbamate]
IC50 ([1]; Pharmacological Test Example 1): < 10 nM | IC50 ([2]; h-SCF 50 ng/ml): < 30 nM

COc1cc2ncnc(Oc3ccc(NC(=O)OCC4CCCCCC4)c(Cl)c3)c2cc1OC [Example 352, Cycloheptylmethyl N-{2-chloro-4-[(6,7-dimethoxy-4-quinazolinyl)oxy]phenyl}carbamate]
IC50 ([1]; Pharmacological Test Example 1): < 10 nM | IC50 ([2]; h-SCF 50 ng/ml): 195 nM

N-{4-[(6,7-Dimethoxy-4-quinolyl)oxy]-2,3-dimethylphenyl}-N′-[3-(1-piperidinyl)propyl]thiourea [Example 558]
IC50 [1]: 73 nM | IC50 ([2]; 50 ng/ml h-SCF): 724 nM

COc1cc2nccc(Oc3ccc(NC(=O)OCc4ccc(C(C)(C)C)cc4)cc3)c2cc1OC [Example 57, 4-(Tert-butyl)benzyl N-{4-[(6,7-dimethoxy-4-quinolyl)oxy]phenyl}carbamate]
IC50 ([1]; Pharmacological Test Example 1): 11 nM | IC50 ([2]; h-SCF 50 ng/ml): 393 nM

CCN(C(=S)NC(=O)Cc1ccccc1)c1ccc(Oc2ccnc3cc(OC)c(OC)cc23)cc1 [Example 1149, N-{4-[(6,7-Dimethoxy-4-quinolyl)oxy]phenyl}-N-ethyl-N′-(2-phenylacetyl)thiourea]
IC50 [1]: 43 nM | IC50 ([2]; h-SCF stimulation): 150 nM

COc1cc2nccc(Oc3cc(C)c(NC(=O)OC(C)C)cc3C)c2cc1OC [Example 347, Isopropyl N-{4-[(6,7-dimethoxy-4-quinolyl)oxy]-2,5-dimethylphenyl}carbamate]
IC50 ([1]; Pharmacological Test Example 1): 77 nM | IC50 ([2]; h-SCF 50 ng/ml): 228 nM

CCCCc1ccc(C(=O)NC(=S)Nc2ccc(Oc3ccnc4cc(OC)c(OC)cc34)cc2F)cc1 [Example 995, N-(4-Butylbenzoyl)-N′-{4-[(6,7-dimethoxy-4-quinolyl)oxy]-2-fluorophenyl}thiourea]
IC50 [1]: 87 nM | inhibition at 1 µM ([2]; figure in parentheses in −( )): 23%

COc1cc2ncnc(Oc3ccc(NC(=O)OC(C)c4ccccc4Cl)c(Cl)c3)c2cc1OC (stereo not drawn) [Example 16, 1-(2-Chlorophenyl)ethyl N-{2-chloro-4-[(6,7-dimethoxy-4-quinazolinyl)oxy]phenyl}carbamate]
IC50 ([1]; Pharmacological Test Example 1): < 10 nM | IC50 ([2]; h-SCF 50 ng/ml): 495 nM

COc1cc2ncnc(Oc3ccc(NC(=O)OCCOc4cccc(F)c4)cc3)c2cc1OC [Example 210, 2-(3-Fluorophenoxy)ethyl N-{4-[(6,7-dimethoxy-4-quinazolinyl)oxy]phenyl}carbamate]
IC50 ([1]; Pharmacological Test Example 1): 16 nM | IC50 ([2]; h-SCF 50 ng/ml): 95 nM

COc1cc2nccc(Oc3ccc(NC(=O)OCCCOc4ccc(F)cc4)c(C)c3C)c2cc1OC [Example 153, 3-(4-Fluorophenoxy)propyl N-{4-[(6,7-dimethoxy-4-quinolyl)oxy]-2,3-dimethylphenyl}carbamate]
IC50 ([1]; Pharmacological Test Example 1): < 10 nM | IC50 ([2]; h-SCF 50 ng/ml): < 30 nM

CCCOC(=O)Nc1ccc(Oc2ccnc3cc(OC)c(OC)cc23)cc1 [Example 247, Propyl N-{4-[(6,7-dimethoxy-4-quinolyl)oxy]phenyl}carbamate]
IC50 ([1]; Pharmacological Test Example 1): 3 nM | IC50 ([2]; h-SCF 50 ng/ml): 40 nM

COc1cc2ncnc(Oc3ccc(NC(=O)OCCOc4ccccc4F)cc3)c2cc1OC [Example 206, 2-(2-Fluorophenoxy)ethyl N-{4-[(6,7-dimethoxy-4-quinazolinyl)oxy]phenyl}carbamate]
IC50 ([1]; Pharmacological Test Example 1): 13 nM | IC50 ([2]; h-SCF 50 ng/ml): 80 nM

COc1cc2ncnc(Oc3ccc(NC(=O)OC(C)c4cccc(N(C)C)c4)cc3)c2cc1OC (stereo not drawn) [Example 202, 1-[3-(Dimethylamino)phenyl]ethyl N-{4-[(6,7-dimethoxy-4-quinazolinyl)oxy]phenyl}carbamate]
IC50 ([1]; Pharmacological Test Example 1): 10 nM | IC50 ([2]; h-SCF 50 ng/ml): 610 nM

COc1cc2nccc(Oc3cc(C)c(NC(=O)Oc4ccccc4C)cc3C)c2cc1OC [Example 289, 2-Methylphenyl N-{4-[(6,7-dimethoxy-4-quinolyl)oxy]-2,5-dimethylphenyl}carbamate]
IC50 ([1]; Pharmacological Test Example 1): < 10 nM | IC50 ([2]; h-SCF 50 ng/ml): 328 nM

COc1cc2ncnc(Oc3ccc(NC(=O)OC(C)c4cccc(Cl)c4)c(Cl)c3)c2cc1OC (stereo not drawn) [Example 7]
IC50 ([1]; Pharmacological Test Example 1): 12 nM | IC50 ([2]; h-SCF 50 ng/ml): 616 nM

COc1cc2nccc(Oc3ccc(NC(=O)OC(C)c4cccc(Cl)c4)c(C)c3C)c2cc1OC (stereo not drawn) [Example 4, 1-(3-Chlorophenyl)ethyl N-{4-[(6,7-dimethoxy-4-quinolyl)oxy]-2,3-dimethylphenyl}carbamate]
IC50 ([1]; Pharmacological Test Example 1): < 10 nM | IC50 ([2]; h-SCF 50 ng/ml): 133 nM

COc1cc2nccc(Oc3cc(C)c(NC(=O)OC(C)c4cccc(Br)c4)cc3C)c2cc1OC (stereo not drawn) [Example 119, 1-(3-Bromophenyl)ethyl N-{4-[(6,7-dimethoxy-4-quinolyl)oxy]-2,5-dimethylphenyl}carbamate]
IC50 ([1]; Pharmacological Test Example 1): > 100 nM | inhibition at 1 µM ([2]; figure in parentheses in −( )): 31%

COc1cc2ncnc(Oc3ccc(NC(=O)N4CCN(c5ccccc5)CC4)cc3)c2cc1OC [Example 691, N1-{4-[(6,7-Dimethoxy-4-quinazolinyl)oxy]phenyl}-4-phenyl-1-piperazinecarboxamide]
IC50 [1]: > 100 nM | inhibition at 0.1 µM [1]: 10% | inhibition at 1 µM [2, 3]: 18%

Reference: patent US7135466B2 (Kirin Beer Kabushiki Kaisha, priority 1999, dated 2006)
